Assay results as given in US20190216889A1, “METHODS AND COMPOSITIONS FOR TREATMENT OF FIBROSIS” (Children's Hospital Medical Center, priority 2018, published 2019).
“Also recorded” adds a separate entry of the source. Where no end group is shown, it is not given here.

Legend:
vascular remodeling = conditions: localized pUR4 treatment; cited from earlier work
[1] = system: myocardial ischemia/reperfusion (I/R) injury; conditions: cited from earlier work
liver fibrosis = conditions: localized pUR4 treatment; cited from earlier work
[2] = system: murine model of unilateral renal ischemia/reperfusion (UIR); test: Unilateral renal ischemia/reperfusion (UIR) with daily i.p. peptide from day 7, tissues collected day 14; assay type: in vivo, C57BL6/J mice
Procedure: Starting seven days after surgery, pUR4 (25 mg/kg/d), III-11C (control; 25 mg/kg/d) or PBS were administered daily by intraperitoneal injection. Mice were sacrificed and tissues collected 14 days after surgery.
All procedures were approved by and performed according to the Department of Laboratory Animal Medicine and the Institutional Animal Care and Use Committee at the Cincinnati Children's Hospital Medical Center. Wild type C57BL6/J 9-10-week-old male mice (Jackson Laboratories) were used for these experiments.
Mice were allowed 1-2 weeks of acclimation upon arrival to the animal facility, after which they underwent unilateral ischemia/reperfusion (UIR) according to Le Clef et al., 2016.17 Briefly, mice were anesthetized with 3% isoflurane for surgical prep (abdominal hair removal, animal identification, etc.), and maintained at 1.5% isoflurane on a 37° C. heating pad throughout the procedure. Following surgical exposure of the ventral abdomen, an atraumatic clamp was placed on the left renal artery and vein for 30 minutes; verification of color change following reperfusion was performed by the surgeon before mice were sutured and glued (outer suture reinforcement), given buprenorphine and subcutaneous saline and returned to their cages. For each animal, the contralateral (right) kidney and renal blood vessels were visualized, but remained untouched. Sham animals underwent an identical surgical procedure, except that the left and right renal arteries and veins were exposed, but were not clamped. Seven (7) days after surgery, mice were weighed and randomly assigned to daily intraperitoneal (i.p.) injections of PBS, III-11C (control peptide; 25 mg/kg), or pUR4 (25 mg/kg).
14 days after UIR (7 days after the onset of daily peptide injections), mice were given 100U heparin and anesthetized with isoflurane; blood was collected and animals were perfused with cold PBS through the aortic arch. Kidneys were excised (and the capsule membrane carefully removed), weighed, and then bisected lengthwise; one half was placed in cold 4% paraformaledhyde overnight followed by paraffin embedding, the other half cut into ˜1 mm3 pieces and flash-frozen for RNA and protein isolation.
Fixed kidneys were paraffin embedded, sectioned at 8 μm and mounted onto glass slides. Prior to staining, the sections were deparaffinized in xylene and rehydrated to water through increasing dilutions of ethanol (100%, 95%, 70%, and then 50%). For picrosirius red staining, slides were incubated for 1 hour in 0.1% Sirius Red (in 1.3% aqueous picric acid), washed twice in acidified water (0.5% acetic acid), […] and mounted with Permount. Images were taken at 10× and 40× (Olympus BX-51 with a DS-Ril camera), and the percentage of red staining was quantified using Image J software (NIH) by two observers blinded to experimental conditions.
For immunofluorescent staining, deparaffinized and rehydrated sections were microwaved for 20 minutes in a sodium citrate antigen retrieval solution (Vector H-3300), and then permeabilized in 0.06% triton-X in TBS. Sections were blocked in 10% goat or donkey serum (depending on the secondary antibody) in TBS for 2 hours at room temperature, and then incubated with primary antibody in 1% serum/TBS overnight at 4° C. Antibodies used were as follows: lipocalin-2/NGAL (1:100; JM-3819, MBL Intl Corp), Tim1/Kim1 (1:100; AF1817, R&D Systems), CD45 (1:100; AF114, R&D Systems), fibronectin (1:100; ab2413, Abcam), collagen I (1:100; ab21286, Abcam), vimentin (1:100; ab45939, Abcam), alpha-smooth muscle actin (1:500; A5228, Sigma). Slides were then washed three times in TBST for 5 min each, and incubated with secondary antibodies for 45 minutes at room temperature. In these experiments the following secondary antibodies were used, all from Jackson ImmunoResearch: donkey anti-rabbit 488 (711-545-152), donkey anti-goat 488 (705-545-147), donkey anti-mouse 647 (715-605-150) and donkey anti-rabbit 647 (711-605-152). […]

[3] = system: unilateral ureteral obstruction (UUO); conditions: obstructive model of kidney injury; cited from earlier work
[4] = molecular target: fibronectin polymerization (Homo sapiens, UniProt P02751); conditions: in vitro; cited from earlier work
[5] = one week systemic daily administration, up to four weeks after I/R
[6] = 2 weeks after UIR, 25 mg/kg/d, 25 mg/kg/day
[7] = 14 days after UIR, 25 mg/kg/d, 25 mg/kg/day
[8] = injured kidney, 2 weeks after UIR, 25 mg/kg/d, 25 mg/kg/day
[9] = injured vs contralateral kidney, 14 days after UIR, 25 mg/kg i.p. daily from day 7, 25 mg/kg
[10] = kidney, 2 weeks after UIR, 25 mg/kg/d

fibronectin polymerization, sequence (P02751 32-2477): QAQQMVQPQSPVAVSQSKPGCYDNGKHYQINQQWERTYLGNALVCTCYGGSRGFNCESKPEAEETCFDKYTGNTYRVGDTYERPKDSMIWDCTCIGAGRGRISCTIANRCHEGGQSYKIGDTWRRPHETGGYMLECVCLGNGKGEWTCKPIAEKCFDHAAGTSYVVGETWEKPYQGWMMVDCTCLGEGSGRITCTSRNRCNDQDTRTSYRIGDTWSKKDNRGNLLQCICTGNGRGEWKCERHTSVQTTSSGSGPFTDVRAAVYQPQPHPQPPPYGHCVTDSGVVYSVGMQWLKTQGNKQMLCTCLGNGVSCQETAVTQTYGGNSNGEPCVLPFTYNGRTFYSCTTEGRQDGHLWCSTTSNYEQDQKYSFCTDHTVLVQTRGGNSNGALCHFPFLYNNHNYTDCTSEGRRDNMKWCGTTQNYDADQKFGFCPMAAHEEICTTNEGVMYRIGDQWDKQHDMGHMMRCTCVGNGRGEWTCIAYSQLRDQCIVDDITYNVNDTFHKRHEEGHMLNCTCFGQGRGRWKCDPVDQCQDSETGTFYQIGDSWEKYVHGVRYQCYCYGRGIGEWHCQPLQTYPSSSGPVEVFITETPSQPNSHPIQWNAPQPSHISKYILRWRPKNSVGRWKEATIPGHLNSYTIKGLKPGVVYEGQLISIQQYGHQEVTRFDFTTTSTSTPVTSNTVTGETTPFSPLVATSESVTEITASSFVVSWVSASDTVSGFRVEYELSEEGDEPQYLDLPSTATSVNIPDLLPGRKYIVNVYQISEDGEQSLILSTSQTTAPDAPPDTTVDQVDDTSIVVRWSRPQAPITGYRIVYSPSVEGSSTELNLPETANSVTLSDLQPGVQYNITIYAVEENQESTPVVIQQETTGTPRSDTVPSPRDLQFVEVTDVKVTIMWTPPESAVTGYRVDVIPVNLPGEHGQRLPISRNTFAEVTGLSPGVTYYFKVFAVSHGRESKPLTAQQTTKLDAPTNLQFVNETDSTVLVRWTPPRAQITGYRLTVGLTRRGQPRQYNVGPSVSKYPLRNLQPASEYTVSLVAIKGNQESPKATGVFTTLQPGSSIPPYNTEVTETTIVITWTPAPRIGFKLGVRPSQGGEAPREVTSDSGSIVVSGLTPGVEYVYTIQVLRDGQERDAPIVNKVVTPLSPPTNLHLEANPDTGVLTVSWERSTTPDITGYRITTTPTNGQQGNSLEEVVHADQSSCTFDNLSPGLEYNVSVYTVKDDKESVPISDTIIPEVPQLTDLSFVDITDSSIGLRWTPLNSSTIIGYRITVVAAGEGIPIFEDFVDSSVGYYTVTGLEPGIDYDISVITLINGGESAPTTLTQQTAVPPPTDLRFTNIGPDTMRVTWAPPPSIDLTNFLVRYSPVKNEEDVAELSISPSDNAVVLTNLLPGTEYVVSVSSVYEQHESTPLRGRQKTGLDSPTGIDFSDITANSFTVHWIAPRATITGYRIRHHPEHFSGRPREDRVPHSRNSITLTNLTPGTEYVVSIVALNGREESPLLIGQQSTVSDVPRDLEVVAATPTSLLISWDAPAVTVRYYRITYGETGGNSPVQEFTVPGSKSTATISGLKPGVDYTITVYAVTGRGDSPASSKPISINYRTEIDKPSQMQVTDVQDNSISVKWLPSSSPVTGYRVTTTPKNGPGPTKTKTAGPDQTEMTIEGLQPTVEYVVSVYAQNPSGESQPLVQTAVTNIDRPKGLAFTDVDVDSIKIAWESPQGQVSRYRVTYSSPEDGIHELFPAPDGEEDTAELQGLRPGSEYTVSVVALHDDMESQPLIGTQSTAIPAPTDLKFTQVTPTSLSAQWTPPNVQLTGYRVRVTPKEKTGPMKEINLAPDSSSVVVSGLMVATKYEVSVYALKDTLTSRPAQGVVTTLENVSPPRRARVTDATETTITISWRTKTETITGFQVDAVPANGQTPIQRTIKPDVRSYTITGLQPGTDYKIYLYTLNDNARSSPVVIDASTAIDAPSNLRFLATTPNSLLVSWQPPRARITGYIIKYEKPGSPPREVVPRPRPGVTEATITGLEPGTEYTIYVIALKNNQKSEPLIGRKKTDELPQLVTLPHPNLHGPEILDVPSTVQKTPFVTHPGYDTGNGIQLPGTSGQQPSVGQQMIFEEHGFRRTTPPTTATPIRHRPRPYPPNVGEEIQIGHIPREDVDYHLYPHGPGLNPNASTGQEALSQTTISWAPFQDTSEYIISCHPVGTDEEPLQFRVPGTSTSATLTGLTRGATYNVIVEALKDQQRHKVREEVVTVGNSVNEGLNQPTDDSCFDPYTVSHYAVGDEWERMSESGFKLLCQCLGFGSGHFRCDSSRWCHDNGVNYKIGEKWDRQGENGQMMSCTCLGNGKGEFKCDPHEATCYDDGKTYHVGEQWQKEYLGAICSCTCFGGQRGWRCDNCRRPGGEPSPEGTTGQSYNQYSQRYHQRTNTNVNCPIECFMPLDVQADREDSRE

For “CKDQSPLAGESGETEYITEVYGNQQNPVDIDKKLPNETGFSGNMVETEDT (also: His tag) [pUR4]”, the “excess ECM deposition” value (vascular remodeling) is listed as “attenuates”, the “deposition of ECM proteins” value ([1]; after myocardial I/R) is listed as “attenuated” and the neutrophil infiltration ([1]; after myocardial I/R) is listed as “reduced”. For the same sequence, the “proliferation of activated cardiac myofibroblasts” value ([1]; after myocardial I/R) was “reduced”, the cardiac function [1, 5] was “improves” and the “pathologic fibrosis and cardiac remodeling” value [1, 5] was “decreases”. For the same sequence, the “excess ECM deposition” value (liver fibrosis) was “attenuates”, the “kidney weight / kidney weight-to-body weight ratio” value [2, 6] was “partially restored; also recorded: significantly recovered” and the “mature fibrillar collagen, second harmonic generation (SHG)” value [2, 6] was “alleviation of fibrotic collagen deposition; also recorded: decreased kidney fibrosis”. The “collagen deposition and maturation, picrosirius red staining (brightfield and polarized light)” value ([2]; 2 weeks after UIR, pUR4 vs III-11C, 25 mg/kg/d) was “decreased; also recorded: attenuated”, the “periglomerular fibrosis (fibronectin, α-SMA and vimentin surrounding glomeruli)” value ([2]; 14 days after UIR, 25 mg/kg/d) was “reduced periglomerular fibrosis” and the “alpha-smooth muscle actin (α-SMA) expression / positive cells, immunostaining” value [2, 7] was “abrogated; also recorded: diminished”. The “collagen I deposition, immunofluorescence” value [2, 7] was “reduces this expansion; also recorded: concomitant decrease”, the “fibronectin deposition in kidney interstitium, immunofluorescence” value [2, 7] was “reduces this expansion; also recorded: decreased the amount of fibronectin” and the “vimentin expression / expansion of vimentin-positive cells outside the glomerulus, immunostaining” value [2, 7] was “abrogated; also recorded: diminished”. For the same sequence, the “CD45+ immune cell accumulation, immunostaining” value [2, 8] was “abrogated”, the “tubule damage and cellular infiltration, H&E staining” value [2, 8] was “abrogates; also recorded: decrease in cellular infiltrate and reduced tubule damage” and the “Havcr1 transcript expression, qPCR of kidney lysates” value [2, 9] was “nearly abolished; also recorded: significantly reduced”. For the same sequence, the “lipocalin-2 (Lcn-2) transcript expression, qPCR of kidney lysates” value [2, 9] was “nearly abolished; also recorded: significantly reduced”, the “NGAL (lipocalin-2) protein expression, immunofluorescent staining” value [2, 10] was “decreased” and the “Tim-1/Kim-1 (Havcr1) protein expression, immunofluorescent staining” value [2, 10] was “decreased”. For the same sequence, the “effect of injection in animals that underwent sham surgery” value ([2]; sham surgery, PBS vs III-11C vs pUR4) was “no differences were observed”, the fibrosis [3] was “attenuate fibrosis” and the fibronectin polymerization [4] was “inhibit”. The “fibronectin production or secretion” value [4] was “not its production or secretion”.
